Here are results for one compound from US11738097B2, “Curcuminoid chemotherapeutic drug carrier composition” (Imam Abdulrahman Bin Faisal University, priority 2018, dated 2023).

The test system of one series is MCF7 cells. The series can be described thus: Cell viability MTT assay. In kind it is cell-based, human. The following applies: 10, 20, 40, 80, 100 μg/ml, 24 h. As for the experimental part: (§1) Materials and Methods/Cell cultures: In this study, a human mammary adenocarcinoma cell line, MCF7, was used for in vitro testing. MCF7 cells were maintained in DMEM (Dulbecco's Modified Eagle Medium) (Gibco, life technologies) supplemented with 10% heat inactivated fetal bovine serum (HI-FBS) (Gibco, life technology), 1% Penicillin Streptomycin (100×-Gibco, life technology), and 1% MEM NEAA (MEM non-essential amino acids) (100×-Gibco, life technology). Cells were kept in a humidified incubator at 37° C. with 5% CO2. For the experimental setup, MCF7 cells were seeded on a 96-well plate at a density of 10,000 cells/well. On the next day, cells were shifted to the starve media (0.5% HI-FBS containing media) for 24 h before treatment. […]
(§2) Cell viability MTT Assay: The viability of cells was tested using 3-(4,5-dimethylthiazol-2-yl)-2,5-diphenyltetrazolium bromide (MTT) assay. […] The change in color intensity was measured at 570 nm wavelength using SYNERGY-neo2 BioTek ELISA reader. […] The reading of each triplicate was averaged and subtracted from the averaged MTT background control reading. […]
(§3) To investigate the cytotoxic effects of curcumin-loaded/Fe2O3 impregnated mesocellular foam silica nanoparticles, the inventors assessed cell viability using the MTT assay on MCF7 cells. […]
(Tetrazolium assays rely on reduction of a dye to a coloured formazan, in cell work by metabolically active cells.)

The nature of a further series: Cell viability MTT assay. To be noted: human, MCF7 cells, maintained throughout the different concentrations (10-100 μg/ml), curcumin stock 390 μg/ml. Format: cell-based, human. As for the experimental part:
as §1, §2, §3

For the compound `COc1cc(/C=C/C(=O)CC(=O)/C=C/c2ccc(O)c(OC)c2)ccc1O` [Curcumin], in the series on MCF7 cells, the “effect on cell viability (in words)” value was “significantly reduced cell viability”. Moreover, the viability (usually a read-out of living cells in per cent, often relative to untreated cells) at 24 h in the series “Cell viability MTT assay” amounted to 66.6%.
